Assay results published in US9663464B2, “Carbazole derivatives acting on 5-HT7 receptor” (KOREA INSTITUTE OF SCIENCE AND TECHNOLOGY, priority 2015, dated 2017).
Structures can show the parent of a compound that is named as a salt.

What was measured:
[1] = target: T1, human gene recombinant 5-HT7 receptor expressed in CHO cells (Homo sapiens, UniProt P34969); experiment: Binding affinity for the 5-HT7 serotonin receptor ([3H]LSD radioligand)
T1 construct: expressed in transfected cells; host or cells: CHO cells (membrane preparation)
Description: In this example, the human gene recombinant 5-HT7 receptor expressed in CHO cells was used. 1 nM [^3H]LSD, 5-HT7 receptor membrane (15 μg/well), a test drug, 10 mM MgCl2, 50 mM Tris-HCl buffer (pH 7.4) containing 0.1 mM EDTA, etc. were added to a vessel until the final volume reached 0.25 ml. The test drug was used at various concentrations. The mixture was cultured at 25° C. for 90 min. The culture was rapidly filtered through a Whatman GF/C glass fiber filter, which had been previously wetted with 0.3% polyethyleneimine using a Brandel harvester, to quench the reaction. The reaction mixture was washed with cold 50 mM Tris-HCl buffer. The filter was covered with MeltiLex, sealed in a sample bag, and dried in an oven. Counting was performed using MicroBeta (Wallac) and nonspecific binding was measured in the presence of […]. The K value of the test drug was obtained from nonlinear regression analysis (GraphPad Prism Program, San Diego, USA) of isotherms obtained by repeatedly performing the experiment on the drug at 10-11 stage concentrations in two test tubes (each twice).
The % inhibition values of the inventive compounds having different Y structures at a concentration of 10 μM against the 5-HT7 serotonin receptor were measured. Further, the binding affinity (Ki) values of the inventive compounds having different Y structures at a concentration of 10 μM for the 5-HT7 serotonin receptor were measured.

[2] = target: 5-HT1E (Homo sapiens, UniProt P28566); experiment: 5-HT1E receptor inhibition (Table 1); assay type: binding
[3] = target: T2, 5-HT2C (Homo sapiens, UniProt P28335); experiment: 5-HT2C receptor inhibition/binding (Tables 1-3)
T2 sequence (P28335 33-458): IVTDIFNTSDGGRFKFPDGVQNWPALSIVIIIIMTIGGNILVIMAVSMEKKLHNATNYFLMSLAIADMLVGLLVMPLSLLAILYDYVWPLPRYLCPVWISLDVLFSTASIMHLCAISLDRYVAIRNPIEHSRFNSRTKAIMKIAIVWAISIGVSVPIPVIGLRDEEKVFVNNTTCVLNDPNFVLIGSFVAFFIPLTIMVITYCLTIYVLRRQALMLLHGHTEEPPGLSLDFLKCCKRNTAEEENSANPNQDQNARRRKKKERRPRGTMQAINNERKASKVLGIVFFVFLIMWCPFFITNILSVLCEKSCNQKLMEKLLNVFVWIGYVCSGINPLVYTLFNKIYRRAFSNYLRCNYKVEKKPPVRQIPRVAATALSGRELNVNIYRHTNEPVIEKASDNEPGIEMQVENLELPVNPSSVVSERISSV

[4] = target: 5-HT6 (Homo sapiens, UniProt P50406); experiment: 5-HT6 receptor inhibition/binding (Tables 2-3); settings: 10 μM
[5] = target: T3, 5-HT1A (Homo sapiens, UniProt P08908); experiment: 5-HT1A receptor inhibition (Table 3); assay type: binding
T3 sequence (P08908 1-422): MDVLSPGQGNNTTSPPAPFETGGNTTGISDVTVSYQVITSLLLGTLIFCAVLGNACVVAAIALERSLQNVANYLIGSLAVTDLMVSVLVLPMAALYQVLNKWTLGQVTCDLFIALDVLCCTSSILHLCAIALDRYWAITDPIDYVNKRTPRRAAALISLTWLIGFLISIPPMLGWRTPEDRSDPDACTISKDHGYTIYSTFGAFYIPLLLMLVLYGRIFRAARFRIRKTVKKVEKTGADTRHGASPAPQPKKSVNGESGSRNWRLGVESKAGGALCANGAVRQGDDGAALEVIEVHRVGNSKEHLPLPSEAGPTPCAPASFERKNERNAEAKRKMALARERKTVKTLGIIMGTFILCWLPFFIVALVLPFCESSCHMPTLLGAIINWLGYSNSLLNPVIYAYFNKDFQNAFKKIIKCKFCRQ

Chain of 5-HT1E (P28566 whole entry, species assumed): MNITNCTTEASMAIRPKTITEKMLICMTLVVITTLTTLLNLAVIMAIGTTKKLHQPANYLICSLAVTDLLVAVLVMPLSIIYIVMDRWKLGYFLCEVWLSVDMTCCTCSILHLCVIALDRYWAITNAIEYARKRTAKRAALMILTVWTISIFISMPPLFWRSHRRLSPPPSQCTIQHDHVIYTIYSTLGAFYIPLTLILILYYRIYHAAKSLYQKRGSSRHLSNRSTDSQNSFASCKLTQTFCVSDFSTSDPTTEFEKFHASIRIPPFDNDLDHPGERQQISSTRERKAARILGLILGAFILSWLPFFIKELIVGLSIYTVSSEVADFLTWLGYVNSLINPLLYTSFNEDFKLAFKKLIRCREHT
Chain of 5-HT6 (P50406 whole entry, species assumed): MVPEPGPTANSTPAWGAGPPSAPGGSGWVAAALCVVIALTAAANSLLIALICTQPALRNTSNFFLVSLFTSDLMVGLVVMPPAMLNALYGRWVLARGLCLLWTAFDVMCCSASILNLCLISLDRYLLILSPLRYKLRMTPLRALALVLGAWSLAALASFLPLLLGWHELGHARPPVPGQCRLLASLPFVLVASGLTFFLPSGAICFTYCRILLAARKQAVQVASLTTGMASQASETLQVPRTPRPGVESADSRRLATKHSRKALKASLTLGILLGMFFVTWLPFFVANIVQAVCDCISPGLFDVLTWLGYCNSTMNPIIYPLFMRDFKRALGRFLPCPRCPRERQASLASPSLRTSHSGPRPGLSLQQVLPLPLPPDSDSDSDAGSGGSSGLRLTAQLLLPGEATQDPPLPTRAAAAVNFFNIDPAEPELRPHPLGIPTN
T1 sequence (P34969 whole entry): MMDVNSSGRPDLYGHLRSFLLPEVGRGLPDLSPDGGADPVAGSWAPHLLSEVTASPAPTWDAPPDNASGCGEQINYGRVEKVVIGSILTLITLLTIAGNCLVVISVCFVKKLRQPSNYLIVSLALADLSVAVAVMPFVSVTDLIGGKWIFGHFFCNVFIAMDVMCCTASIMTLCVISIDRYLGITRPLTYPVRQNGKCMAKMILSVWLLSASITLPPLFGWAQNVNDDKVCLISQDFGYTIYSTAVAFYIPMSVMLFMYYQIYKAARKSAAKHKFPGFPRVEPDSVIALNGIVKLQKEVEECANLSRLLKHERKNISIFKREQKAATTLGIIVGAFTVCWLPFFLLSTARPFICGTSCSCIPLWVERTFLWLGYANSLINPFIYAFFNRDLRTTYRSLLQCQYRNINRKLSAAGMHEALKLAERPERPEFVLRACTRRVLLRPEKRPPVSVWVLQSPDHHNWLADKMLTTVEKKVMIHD

SMILES | Ki [1] | inhibition at 10 µM [1] | inhibition at 10 µM [2] | Ki [3] | inhibition at 10 µM [3] | inhibition at 10 µM [4] | inhibition at 10 µM [5]
CCCCN(C)CCCCCC(=O)n1c2ccccc2c2ccccc21 [Example 2.1, 6-(Butyl(methyl)amino)-1-(9H-carbazol-9-yl)hexan-1-one hydrochloride] | 0.68 µM | 82.8% | 51.3% | 0.207 µM | 87.4% | – | –
O=C(CCCCCN1CCCC1)n1c2ccccc2c2ccccc21 [Example 2.3, 1-(9H-carbazol-9-yl)-6-(pyrrolidin-1-yl)hexan-1-one hydrochloride] | 1.05 µM | 74% | 13.9% | 0.764 µM | 76.7% | – | –
O=C(CCCCCN1CCN(Cc2ccccc2)CC1)n1c2ccccc2c2ccccc21 [Example 2.13, 6-(4-Benzylpiperazin-1-yl)-1-(9H-carbazol-9-yl)hexan-1-one hydrochloride] | 0.127 µM | 94.8% | – | – | 72.3% | 57.9% | 76.8%
COc1ccccc1N1CCN(CCCCCC(=O)n2c3ccccc3c3ccccc32)CC1 [Example 2.16, 1-(9H-carbazol-9-yl)-6-(4-(2-methoxyphenyl)piperazin-1-yl)hexan-1-one] | 0.074 µM | 102% | – | – | 55.8% | 30.7% | 108%
CCCCN(C)CCCCC(=O)n1c2ccccc2c2ccccc21 [Example 2.17, 5-(Butyl(methyl)amino)-1-(9H-carbazol-9-yl)pentan-1-one hydrochloride] | 1.28 µM | 50% | 73.9% | – | – | – | –
O=C(CCCCN1CCCC1)n1c2ccccc2c2ccccc21 [Example 2.19, 1-(9H-carbazol-9-yl)-5-(pyrrolidin-1-yl)pentan-1-one hydrochloride] | 2.16 µM | 57.4% | 16.3% | – | 45% | – | –
CC1CCN(CCCCC(=O)n2c3ccccc3c3ccccc32)CC1 [Example 2.20, 1-(9H-carbazol-9-yl)-5-(4-methylpiperidin-1-yl)pentan-1-one hydrochloride] | 0.592 µM | 80.2% | -19.3% | – | 44.4% | – | –
CC1CC(C)CN(CCCCC(=O)n2c3ccccc3c3ccccc32)C1 (stereo not drawn) [Example 2.22, 1-(9H-carbazol-9-yl)-5-(3,5-dimethylpiperidin-1-yl)pentan-1-one hydrochloride] | 1.4 µM | 67.6% | -10.5% | 0.852 µM | 52.1% | – | –
CCCCN(C)CCCCCCn1c2ccccc2c2ccccc21 [Example 2.35, N-Butyl-6-(9H-carbazol-9-yl)-N-methylhexane-1-amine] | 0.511 µM | 70.7% | 55.7% | – | 59.4% | – | –
CC1CCCN(CCCCCCn2c3ccccc3c3ccccc32)C1 (stereo not drawn) [Example 2.39, 9-(6-(3-Methylpiperidin-1-yl)hexyl)-9H-carbazole] | 0.909 µM | 75.6% | 1.5% | – | – | – | –
CC1CC(C)CN(CCCCCCn2c3ccccc3c3ccccc32)C1 (stereo not drawn) [Example 2.40, 9-(6-(3,5-Dimethylpiperidin-1-yl)hexyl)-9H-carbazole] | 1.6 µM | 57.7% | -7.3% | – | – | – | –
c1ccc2c(c1)c1ccccc1n2CCCCCCN1CCCCCC1 [Example 2.41, 9-(6-(Azepan-1-yl)hexyl)-9H-carbazole] | 0.952 µM | 71.3% | 2.7% | – | – | – | –

Other lines, results leading:

Ki [1] | inhibition at 10 µM [1] | inhibition at 10 µM [2] | Ki [3] | inhibition at 10 µM [3] | inhibition at 10 µM [4] | inhibition at 10 µM [5] | SMILES
– | 92% | 10.2% | 1.32 µM | 54.6% | – | – | CN(CCCCCC(=O)n1c2ccccc2c2ccccc21)Cc1ccccc1 [Example 2.2, 6-(Benzyl)methyl)amino)-1-(9H-carbazol-9-yl)hexan-1-one hydrochloride]
0.55 µM | 84.6% | -15.3% | 0.486 µM | 86.6% | – | – | CC1CCCN(CCCCCC(=O)n2c3ccccc3c3ccccc32)C1 (stereo not drawn) [Example 2.5, 1-(9H-carbazol-9-yl)-6-(3-methylpiperidin-1-yl)hexan-1-one hydrochloride]
0.833 µM | 77.2% | -21.9% | 0.454 µM | 80.6% | – | – | CC1CC(C)CN(CCCCCC(=O)n2c3ccccc3c3ccccc32)C1 (stereo not drawn) [Example 2.6, 1-(9H-carbazol-9-yl)-6-(3,5-dimethylpiperidin-1-yl)hexan-1-one hydrochloride]
0.616 µM | 86% | 1.8% | 0.411 µM | 77.2% | – | – | O=C(CCCCCN1CCCCCC1)n1c2ccccc2c2ccccc21 [Example 2.7, 6-(Azepan-1-yl)-1-(9H-carbazol-9-yl)hexan-1-one hydrochloride]
0.513 µM | 83.1% | -22.5% | – | 32.6% | – | – | CN(CCCCC(=O)n1c2ccccc2c2ccccc21)Cc1ccccc1 [Example 2.18, 5-(Benzyl(methyl)amino)-1-(9H-carbazol-9-yl)pentan-1-one hydrochloride]
0.883 µM | 69.4% | -6% | – | 50% | – | – | CC1CCCN(CCCCC(=O)n2c3ccccc3c3ccccc32)C1 (stereo not drawn) [Example 2.21, 1-(9H-carbazol-9-yl)-5-(3-methylpiperidin-1-yl)pentan-1-one hydrochloride]
0.949 µM | 77% | -11.7% | 1.09 µM | 55% | – | – | O=C(CCCCN1CCCCCC1)n1c2ccccc2c2ccccc21 [Example 2.23, 5-(Azepan-1-yl)-1-(9H-carbazol-9-yl)pentan-1-one hydrochloride]
1.07 µM | 64.6% | – | – | 6.6% | 13.8% | 25.4% | CC(=O)N1CCN(CCCCC(=O)n2c3ccccc3c3ccccc32)CC1 [Example 2.27, 5-(4-Acetylpiperazin-1-yl)-1-(9H-carbazol-9-yl)pentan-1-one hydrochloride]
0.282 µM | 92% | – | – | 38% | 57.4% | 66.5% | O=C(CCCCN1CCN(Cc2ccccc2)CC1)n1c2ccccc2c2ccccc21 [Example 2.29, 5-(4-Benzylpiperazinyl)-1-(9H-carbazol-9-yl)pentan-1-one hydrochloride]
0.033 µM | 97.7% | – | – | 74.2% | 51.5% | 104% | COc1ccccc1N1CCN(CCCC(=O)n2c3ccccc3c3ccccc32)CC1 [Example 2.34, 1-(9H-carbazol-9-yl)-4-(4-(2-methoxyphenyl)piperazin-1-yl)butan-1-one]
1.98 µM | 64% | -13.2% | – | – | – | – | CN(CCCCCCn1c2ccccc2c2ccccc21)Cc1ccccc1 [Example 2.36, N-Benzyl-6-(9H-carbazol-9-yl)-N-methylhexane-1-amine]
1.55 µM | 66.9% | 21.1% | – | – | – | – | c1ccc2c(c1)c1ccccc1n2CCCCCCN1CCCC1 [Example 2.37, 9-(6-(Pyrrolidin-1-yl)hexyl)-9H-carbazole]
0.597 µM | 82.9% | -9.4% | – | – | – | – | CC1CCN(CCCCCCn2c3ccccc3c3ccccc32)CC1 [Example 2.38, 9-(6-(4-Methylpiperidin-1-yl)hexyl)-9H-carbazole]
